Counter-ions that a name gives are not always drawn. Like-named read-outs stand apart in the source and are kept apart here.
Key:
α1A receptor = target: T1, α1A receptor (Homo sapiens, UniProt P35348); assay: Competitive receptor binding assay, α1A (3H-Prazosin, CHO-K1-α1A membranes)
T1 construct: expressed in transfected cells; host or cells: CHO-K1
T1 sequence (P35348 1-466): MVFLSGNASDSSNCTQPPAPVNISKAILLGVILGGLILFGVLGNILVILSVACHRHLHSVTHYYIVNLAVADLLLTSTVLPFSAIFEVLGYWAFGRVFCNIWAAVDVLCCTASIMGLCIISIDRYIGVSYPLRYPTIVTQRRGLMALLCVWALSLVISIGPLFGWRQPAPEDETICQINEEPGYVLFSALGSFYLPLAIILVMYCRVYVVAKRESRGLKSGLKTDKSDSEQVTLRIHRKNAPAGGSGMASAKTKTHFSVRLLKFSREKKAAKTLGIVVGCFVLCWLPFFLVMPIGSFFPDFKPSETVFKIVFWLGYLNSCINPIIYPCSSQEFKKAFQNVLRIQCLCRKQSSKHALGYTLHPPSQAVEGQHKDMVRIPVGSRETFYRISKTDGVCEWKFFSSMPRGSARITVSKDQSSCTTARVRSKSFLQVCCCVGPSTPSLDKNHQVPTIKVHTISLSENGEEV
Protocol: (§1) Test sample (compound): The theoretical sample weighing amount was calculated according to the designed concentration and the required volume. Generally, the test sample was dissolved in DMSO to an initial preparation dose of 5.0 × 10^-3 M, and the solution was sequentially diluted with DMSO to 5.0 × 10^-4 M-5.0 × 10^-9 M; the diluted DMSO solution was diluted with Buffer to a working concentration of 5.0 × 10^-5 M-5.0 × 10^-11 M; and the final concentration of DMSO in the working solution was 1% (the final concentration of DMSO in the reaction system was 0.2%). The test sample was prepared and then stored at 4 °C. After the test was completed, the test sample was discarded.
(§2) CHO-K1-α1A, CHO-K1-α2A, CHO-K1-α2B, and CHO-K1-α2C cells were taken out of a refrigerator at -80 °C, thawed naturally, and centrifuged at 2000 g at 4 °C for 10 min. The supernatant was discarded, and the pellet was collected. […] The supernatant was discarded, and the buffer was added again. […] The supernatant was discarded, and the pellet was collected and stored at -80 °C.
(§3) Table 1. Experimental conditions for radioactive binding
(§4) Step 1: 50 µL of a vehicle (1% DMSO) was added to a total binding tube (TB), 50 µL of a non-labeled substance (with a final concentration of 1.0 × 10^-5 M) was added to a non-specific binding tube (NB), and 50 µL of a test compound was added to each test compound tube (CB).
(§5) Step 2: 100 µL of a buffer was added to each reaction tube.
(§6) Step 3: The prepared membrane was suspended in a buffer to give a membrane suspension with a corresponding concentration for later use.
(§7) Step 4: 50 µL of the corresponding radioligand was added to each reaction tube.
(§8) Step 5: 50 µL of the membrane suspension was added to each reaction tube.
(§9) Step 6: Each reaction tube was incubated according to the incubation conditions. After the reaction was completed, the binding ligands were rapidly filtered under reduced pressure. The UniFilter GF/C plate was saturated with a 0.5% PEI solution 1 h in advance, fully washed with an ice-cold Tris-HCl buffer, filtered under vacuum, then placed into a thermostatic dryer, and dried for 30 min. The filter plate was taken out, and a MICROSCINT PS scintillation solution was added at 40 µL/well.
(§10) Step 7: The scintillation vial was put into a liquid scintillation counter for counting.
(§11) Based on the effect values of the compound samples at different concentration test points, the GraphPad Prism software was used to fit the action curves of the compound samples to the receptors, and the Ki values were calculated.

α2B receptor = target: T2, α2B receptor (Homo sapiens, UniProt P18089); assay: Competitive receptor binding assay, α2B (3H-RX821002, CHO-K1-α2B membranes)
T2 construct: expressed in transfected cells; host or cells: CHO-K1
T2 sequence (P18089 1-450): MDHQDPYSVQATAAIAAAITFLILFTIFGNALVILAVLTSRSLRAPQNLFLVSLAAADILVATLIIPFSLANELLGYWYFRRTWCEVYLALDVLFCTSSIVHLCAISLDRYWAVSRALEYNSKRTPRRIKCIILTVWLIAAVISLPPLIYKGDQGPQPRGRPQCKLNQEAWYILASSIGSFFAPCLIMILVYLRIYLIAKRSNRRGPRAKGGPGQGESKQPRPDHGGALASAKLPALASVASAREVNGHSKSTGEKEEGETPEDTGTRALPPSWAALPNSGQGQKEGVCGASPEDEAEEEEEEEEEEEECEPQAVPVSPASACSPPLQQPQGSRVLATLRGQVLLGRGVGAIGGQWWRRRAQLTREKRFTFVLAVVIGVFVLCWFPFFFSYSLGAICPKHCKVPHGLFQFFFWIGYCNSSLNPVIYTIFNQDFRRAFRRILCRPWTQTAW
Protocol: as §1, §2, §3, §4, §5, §6, §7, §8, §9, §10, §11

α2C receptor = target: T3, α2C receptor (Homo sapiens, UniProt P18825); assay: Competitive receptor binding assay, α2C (3H-RX821002, CHO-K1-α2C membranes)
T3 construct: expressed in transfected cells; host or cells: CHO-K1
T3 sequence (P18825 1-462): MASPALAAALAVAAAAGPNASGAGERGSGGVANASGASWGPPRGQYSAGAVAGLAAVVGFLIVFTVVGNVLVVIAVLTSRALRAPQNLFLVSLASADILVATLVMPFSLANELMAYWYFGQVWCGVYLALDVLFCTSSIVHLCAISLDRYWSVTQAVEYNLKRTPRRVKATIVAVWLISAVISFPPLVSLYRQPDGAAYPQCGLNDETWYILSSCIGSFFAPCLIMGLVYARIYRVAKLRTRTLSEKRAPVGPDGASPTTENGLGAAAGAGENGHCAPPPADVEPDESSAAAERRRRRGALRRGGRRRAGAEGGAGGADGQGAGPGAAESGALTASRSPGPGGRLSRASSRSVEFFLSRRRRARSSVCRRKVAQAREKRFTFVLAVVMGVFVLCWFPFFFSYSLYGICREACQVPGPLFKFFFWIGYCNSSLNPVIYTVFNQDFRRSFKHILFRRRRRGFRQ
Protocol: as §1, §2, §3, §4, §5, §6, §7, §8, §9, §10, §11

α1A adrenoceptor = target: T4, α1A adrenoceptor (Homo sapiens, UniProt P35348); assay: Agonist screening mode IP-One assay, 293-α1A cells; format: cell-based
T4 construct: host or cells: 293
T4 sequence (P35348 1-466): T1 sequence (P35348 1-466)
Protocol: (§12) The cells were centrifuged at 1000 rpm for 5 min, and the supernatant was discarded. 3 mL of PBS was added, and the mixture was gently pipetted to be mixed well. The cells were centrifuged again at 1000 rpm for 5 min, and the supernatant was discarded. […] After shaking, the assay plates were left to stand at room temperature for 60 min. • (8) Experimental readings: The plate was read on Envision, readings from the 665 nm and 615 nm channels were taken, and the ratio of 665 nm/615 nm readings was calculated.

α2B adrenoceptor = target: T5, α2B adrenoceptor (Homo sapiens, UniProt P18089); assay: Agonist screening mode IP-One assay, CHO-α2B/Gα15 cells; format: cell-based
T5 construct: host or cells: CHO
T5 sequence (P18089 1-450): T2 sequence (P18089 1-450)
Protocol: as §12

α2C adrenoceptor = target: T6, α2C adrenoceptor (Homo sapiens, UniProt P18825); assay: Agonist screening mode IP-One assay, CHO-α2C/Gα15 cells; format: cell-based
T6 construct: host or cells: CHO
T6 sequence (P18825 1-462): T3 sequence (P18825 1-462)
Protocol: as §12

[1] = Ki, CHO-K1-α1A membranes, 3H-Prazosin, read-out: Binding α1A
[2] = Ki, CHO-K1-α2B membranes, 3H-RX821002, read-out: Binding α2B
[3] = Ki, CHO-K1-α2C membranes, 3H-RX821002, read-out: Binding α2C

SMILES	Ki (α1A receptor; [1])	Ki (α2B receptor; [2])	Ki (α2C receptor; [3])	EC50 (α1A adrenoceptor)	EC50 (α2B adrenoceptor)	EC50 (α2C adrenoceptor)	Ki (α1A receptor)	Ki (α2B receptor)	Ki (α2C receptor)
c1cc2c(c(Cc3c[nH]cn3)c1)SCCC2 [Compound 1, 4-[1-(Thiochroman-8-yl)methyl]-1H-imidazole]	67.9 nM	59.1 nM	29.3 nM	3.16 nM	4.09 nM	15.3 nM			
CC(c1c[nH]cn1)c1cccc2c1SCCC2 (stereo not drawn) [Compound 2, 4-(1-[Thiochroman-8-yl)ethyl]-1H-imidazole]	91.2 nM	11.7 nM	13.8 nM	5.32 nM	3.03 nM	18.4 nM			
CC(c1c[nH]cn1)c1cccc2c1CC2 (stereo not drawn) [Compound 3, 4-(1-(Bicyclo[4.2.0]octa-1(6),2,4-trien-2-yl)ethyl)-1H-imidazole]				57 nM	5.51 nM	191 nM	1130 nM	62.3 nM	26.1 nM
CC(c1c[nH]cn1)c1cccc2c1CCCC2 (stereo not drawn) [Compound 4, 4-(1-(5,6,7,8-Tetrahydronaphthalen-1-yl)ethyl)-1H-imidazole]				25.1 nM	54.4 nM	278 nM	2050 nM	64.6 nM	46.1 nM
CC(c1c[nH]cn1)c1cccc2c1C=CC2 (stereo not drawn) [Compound 8, 4-[1-(1H-Inden-4-yl)ethyl]-1H-imidazole]				21.8 nM	17.7 nM	9.89 nM	1130 nM	37.7 nM	18.9 nM
CC(c1c[nH]cn1)c1cccc2c1OCC2 (stereo not drawn) [Compound 10, 4-[1-(2,3-Dihydrobenzofuran-7-yl)ethyl]-1H-imidazole]				24.1 nM	1.66 nM	3.99 nM	766 nM	6.05 nM	6.44 nM
C[C@H](c1c[nH]cn1)c1cc(F)cc2c1C=CC2 [Compound 11-b, 4-[(1S)-1-(6-fluoro-1H-inden-4-yl)ethyl]-1H-imidazole]				36.8 nM	2.55 nM	0.87 nM	671 nM	54.8 nM	23.8 nM
CC(c1c[nH]cn1)c1cccc2c1C=CC2(C)C (stereo not drawn) [Compound 17, 4-[1-(1,1-Dimethyl-1H-inden-4-yl)ethyl]-1H-imidazole]				104 nM	6.59 nM	134 nM	> 10000 nM	244 nM	594 nM
C[C@H](c1c[nH]cn1)c1cccc2c1CCC2 [Compound 31-b, (S)-4-[1-(2,3-dihydro-1H-inden-4-yl)ethyl]-1H-imidazole]				7.94 nM	1.08 nM	1.78 nM	424 nM	32.9 nM	10.8 nM
CC1Cc2cccc(C(C)c3c[nH]cn3)c2O1 (stereo not drawn) [Compound 32, 4-[1-(2-Methyl-2,3-dihydrobenzofuran-7-yl)ethyl]-1H-imidazole]				4.73 nM	2.23 nM	8.13 nM	137 nM	28.1 nM	26.1 nM
C[C@H](c1c[nH]cn1)c1cc(F)cc2c1C(=O)CC2 [Compound 38-b, (S)-7-(1-(1H-imidazol-4-yl)ethyl)-5-fluoro-2,3-dihydro-1H-inden-1-one]	3160 nM	49.1 nM	36.4 nM	9.75 nM	3.84 nM	2.21 nM			
Cc1cccc([C@H](C)c2cnc[nH]2)c1C [Dexmedetomidine hydrochloride, reference compound]	593 nM	3.66 nM	7.34 nM	9.55 nM	0.96 nM	2.05 nM			
